# Laboratory results: patent US5001137A, “Pyridine compounds and pharmaceutical use thereof” (Yoshitomi Pharmaceutical Industries, Ltd., priority 1988, dated 1991)
# Molecular target: T1, prolylendopeptidase (Rattus norvegicus, UniProt O70196)
# T1 construct: using rat cerebral soluble fractions as the crude enzyme; from tissue; host or cells: rat cerebrum, soluble fraction (crude enzyme)
# Test: Measurement of prolylendopeptidase-inhibitory activity (rat cerebral soluble fractions as crude enzyme; succinyl-glycyl-prolylmethylcoumarinamide substrate, fluorescence)
# Type: biochemical
# Settings: rat cerebral soluble fraction, pH 7.0, 30° C., 15 minutes, 0.25% dimethylsulfoxide
# Method: The prolylendopeptidase-inhibitory activity was estimated, using rat cerebral soluble fractions as the crude enzyme, in accordance with the methods by Yoshimoto et al (Biochem. Biophys. Acta., vol. 569, p 184 (1979)) and Kato et al. (J. Neurochem., vol. 35, p 527 (1980)). That is, a mixture containing 0.1 ml of 0.25 mM succinyl-glycyl-prolylmethylcoumarinamide, 1.15 ml of 0.1M Na/K phosphate buffer solution (pH 7.0), 0.1 ml of the crude enzyme and 0.1 ml of a solution of the compound of the present invention (at the final concentration of dimethylsulfoxide of 0.25%) was incubated at 30° C. for 15 minutes. Thereafter 1.5 ml of 0.1M acetate buffer solution (pH 4.2) was added to terminate the reaction. The fluorescence intensity (a) of the liberated methyl coumarinamide was measured by a fluorophotometer (Ex. 370 nm, Em. 440 nm). At the same time, the fluorescence intensity (b) of the control comprising a dimethylsulfoxide solution alone (at the final concentration of 0.25%) instead of the compound of the present invention was measured, and the prolylendopeptidase-inhibitory rate was calculated in accordance with the following formula and the concentration at which 50% of inhibition (IC50) can be attained was estimated.
# Inhibition (%)={(b-a)/b)}×100
# T1 sequence (O70196 whole entry): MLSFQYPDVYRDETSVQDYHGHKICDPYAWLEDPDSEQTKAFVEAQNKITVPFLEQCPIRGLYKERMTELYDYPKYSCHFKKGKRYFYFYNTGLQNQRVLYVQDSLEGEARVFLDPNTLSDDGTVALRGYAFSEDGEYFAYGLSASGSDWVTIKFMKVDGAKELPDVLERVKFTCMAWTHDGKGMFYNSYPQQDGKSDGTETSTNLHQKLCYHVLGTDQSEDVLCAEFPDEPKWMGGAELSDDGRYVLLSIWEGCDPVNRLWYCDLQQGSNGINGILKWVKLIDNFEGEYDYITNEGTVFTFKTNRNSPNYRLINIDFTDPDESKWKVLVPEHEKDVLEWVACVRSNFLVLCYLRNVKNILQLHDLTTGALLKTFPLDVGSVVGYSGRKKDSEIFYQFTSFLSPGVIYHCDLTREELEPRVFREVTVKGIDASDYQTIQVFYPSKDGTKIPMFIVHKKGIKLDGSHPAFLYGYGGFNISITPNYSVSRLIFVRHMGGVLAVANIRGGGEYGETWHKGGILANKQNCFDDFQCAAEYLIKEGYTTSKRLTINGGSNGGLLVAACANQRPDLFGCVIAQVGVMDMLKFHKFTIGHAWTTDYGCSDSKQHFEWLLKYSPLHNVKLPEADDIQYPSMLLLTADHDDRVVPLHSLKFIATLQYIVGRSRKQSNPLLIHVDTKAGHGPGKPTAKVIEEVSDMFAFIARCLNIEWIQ
row,Structure (SMILES),IC50
1,"CN(C)CCc1ccc(Oc2ncccc2C(=O)c2cccs2)cc1 [Example 1, 2-[4-(2-dimethylaminoethyl)phenoxy]-3-(2-thenoyl)pyridine]",0.014 µM
2,"CN(C)CCCCCCOc1ccc(Oc2ncccc2C(=O)c2cccs2)cc1 [Example 2, 2-[4-(6-dimethylaminohexyloxy)phenoxy]-3-(2-thenoyl)pyridine]",0.03 µM
3,"CN(C)CCCOc1ccc(Oc2ncccc2C(=O)c2cccs2)cc1 [Example 4, 2-[4-(3-dimethylaminopropoxy)phenoxy]-3-(2-thenoyl)pyridine]",0.06 µM
4,"CN(C)CCCCCCSc1ncccc1C(=O)c1cccs1 [Example 5, 2-(6-dimethylaminohexylthio)-3-(2-thenoyl)pyridine]",0.0095 µM
5,"CN(CCCCCCOc1ncccc1C(=O)c1cccs1)Cc1ccccc1 [Example 6, 2-[6-(N-benzyl-N-methylamino)hexyloxy]-3-(2-thenoyl)pyridine]",0.078 µM
6,"CN(C)CCCCCCOc1ncccc1C(=O)c1cccs1 [Example 13, 2-(6-dimethylaminohexyloxy)-3-(2-thenoyl)pyridine]",0.055 µM
7,"CC(CSCCCCCCN(C)C)Sc1ncccc1C(=O)c1cccs1 (stereo not shown) [Example 17, 2-[2-(6-Dimethylaminohexylthio)-1-methylethylthio]-3-(2-thenoyl)pyridine]",0.0045 µM
8,"Cc1ccc(C(=O)c2cccs2)c(SCCCCCCN(C)C)n1 [Example 18, 2-(6-Dimethylaminohexylthio)-6-methyl-3-(2-thenoyl)pyridine]",0.0095 µM
9,"CN(C)CCCCCCSCCSc1ncccc1C(=O)c1cccs1 [Example 19, 2-[2-(6-Dimethylaminohexylthio)ethylthio]-3-(2-thenoyl)pyridine]",0.0045 µM
10,"CC(CSCCCN(C)C)Sc1ncccc1C(=O)c1cccs1 (stereo not shown) [Example 20, 2-[2 (3-Dimethylaminopropylthio)-1-methylethylthio]-3-(2-thenoyl)pyridine]",0.0045 µM
11,"CC(C)c1ccc(C(=O)c2cccs2)c(SCCCCCCN(C)C)n1 [Example 21, 2-(6-Dimethylaminohexylthio)-6-isopropyl-3-(2-thenoyl)pyridine]",0.0055 µM
12,"CCN(CC)CCCCCCSc1nc(C(C)C)ccc1C(=O)c1cccs1 [Example 22, 2-(6-Diethylaminohexylthio)-6-isopropyl-3-(2-thenoyl)pyridine]",0.011 µM
13,"CN(C)CCCOc1ncccc1C(=O)c1ccc(Cl)cc1 [Known Compound, 3-(4-chlorobenzoyl)-2-(3-dimethylaminepropoxy)pyridine, reference compound]",1800 µM
